# Laboratory results published in publication PMC10722513.
# Assay: Au(I)-catalysed intramolecular Trp C2-H alkynylation: peptide-EBX (4-ethynylbenzoyl bis-CF3-benziodoxole on Lys side chain or N-terminus) + AuCl·Me2S, open flask
# Details: HFIP, 5.0 mM, 25.0 °C, 0.17 h
smiles,measurement,setting,value
CC(=O)N[C@H]1CCCCNC(=O)c2ccc(cc2)C#Cc2[nH]c3ccccc3c2C[C@@H](C(=O)O)NC(=O)[C@H](Cc2ccccc2)NC(=O)[C@H](C)NC(=O)[C@H](CCC(=O)O)NC1=O [Ac-K(EBX)-E-A-F-W-OH],"ring closure, isolated yield","from CC(=O)N[C@@H](CCCCNC(=O)c1ccc(C#CI2OC(C(F)(F)F)(C(F)(F)F)c3ccccc32)cc1)C(=O)N[C@@H](CCC(=O)O)C(=O)N[C@@H](C)C(=O)N[C@@H](Cc1ccccc1)C(=O)N[C@@H](Cc1c[nH]c2ccccc12)C(=O)O, 28-membered ring",37%
C[C@@H]1NC(=O)[C@H](CC(=O)O)NC(=O)CNC(=O)c2ccc(cc2)C#Cc2c(c3ccccc3n2C)C[C@@H](C(N)=O)NC(=O)[C@H](CCC(=O)O)NC(=O)CNC(=O)[C@H]([C@@H](C)O)NC(=O)[C@H](CCC(=O)O)NC1=O [EBX-G-D-A-E-T-G-E-W(1-Me)-NH2],"ring closure, isolated yield","from C[C@H](NC(=O)[C@H](CC(=O)O)NC(=O)CNC(=O)c1ccc(C#CI2OC(C(F)(F)F)(C(F)(F)F)c3ccccc32)cc1)C(=O)N[C@@H](CCC(=O)O)C(=O)N[C@H](C(=O)NCC(=O)N[C@@H](CCC(=O)O)C(=O)N[C@@H](Cc1cn(C)c2ccccc12)C(N)=O)[C@@H](C)O, 33-membered ring",61%
CC(=O)N[C@H]1CCCCNC(=O)c2ccc(cc2)C#Cc2[nH]c3ccccc3c2C[C@@H](C(=O)O)NC(=O)[C@H](Cc2ccccc2)NC(=O)[C@H](C)NC(=O)[C@H](CC(C)C)NC1=O [Ac-K(EBX)-L-A-F-W-OH],"ring closure, isolated yield","from CC(=O)N[C@@H](CCCCNC(=O)c1ccc(C#CI2OC(C(F)(F)F)(C(F)(F)F)c3ccccc32)cc1)C(=O)N[C@@H](CC(C)C)C(=O)N[C@@H](C)C(=O)N[C@@H](Cc1ccccc1)C(=O)N[C@@H](Cc1c[nH]c2ccccc12)C(=O)O, 28-membered ring",56%
N=C(N)NCCC[C@@H]1NC(=O)CNC(=O)c2ccc(cc2)C#Cc2[nH]c3ccccc3c2C[C@@H](C(N)=O)NC(=O)[C@H](Cc2ccccc2)NC(=O)[C@H](CC(=O)O)NC(=O)CNC1=O [EBX-G-R-G-D-F-W-NH2],"ring closure, isolated yield","from N=C(N)NCCC[C@H](NC(=O)CNC(=O)c1ccc(C#CI2OC(C(F)(F)F)(C(F)(F)F)c3ccccc32)cc1)C(=O)NCC(=O)N[C@@H](CC(=O)O)C(=O)N[C@@H](Cc1ccccc1)C(=O)N[C@@H](Cc1c[nH]c2ccccc12)C(N)=O, 27-membered ring",63%
CC(=O)N[C@H]1CCCCNC(=O)c2ccc(cc2)C#Cc2[nH]c3ccccc3c2C[C@@H](C(=O)O)NC(=O)[C@H](Cc2ccccc2)NC(=O)[C@H](C)NC(=O)[C@H](CCCNC(=N)N)NC1=O [Ac-K(EBX)-R-A-F-W-OH],"ring closure, isolated yield","from CC(=O)N[C@@H](CCCCNC(=O)c1ccc(C#CI2OC(C(F)(F)F)(C(F)(F)F)c3ccccc32)cc1)C(=O)N[C@@H](CCCNC(=N)N)C(=O)N[C@@H](C)C(=O)N[C@@H](Cc1ccccc1)C(=O)N[C@@H](Cc1c[nH]c2ccccc12)C(=O)O, 28-membered ring",42%
CC(=O)N[C@H]1CCCCNC(=O)c2ccc(cc2)C#Cc2c(c3ccccc3n2C)C[C@@H](C(=O)O)NC(=O)[C@H](Cc2ccccc2)NC(=O)[C@H](C)NC(=O)[C@H](CC(C)C)NC1=O [Ac-K(EBX)-L-A-F-W(1-Me)-OH],"ring closure, isolated yield","from CC(=O)N[C@@H](CCCCNC(=O)c1ccc(C#CI2OC(C(F)(F)F)(C(F)(F)F)c3ccccc32)cc1)C(=O)N[C@@H](CC(C)C)C(=O)N[C@@H](C)C(=O)N[C@@H](Cc1ccccc1)C(=O)N[C@@H](Cc1cn(C)c2ccccc12)C(=O)O, 28-membered ring",63%
C[C@@H]1NC(=O)[C@H](CC(=O)O)NC(=O)CNC(=O)c2ccc(cc2)C#Cc2[nH]c3ccccc3c2C[C@@H](C(N)=O)NC(=O)[C@H](CCC(=O)O)NC(=O)CNC(=O)[C@H]([C@@H](C)O)NC(=O)[C@H](CCC(=O)O)NC1=O [EBX-G-D-A-E-T-G-E-W-NH2],"ring closure, isolated yield","from C[C@H](NC(=O)[C@H](CC(=O)O)NC(=O)CNC(=O)c1ccc(C#CI2OC(C(F)(F)F)(C(F)(F)F)c3ccccc32)cc1)C(=O)N[C@@H](CCC(=O)O)C(=O)N[C@H](C(=O)NCC(=O)N[C@@H](CCC(=O)O)C(=O)N[C@@H](Cc1c[nH]c2ccccc12)C(N)=O)[C@@H](C)O, 33-membered ring",47%
C#CC[C@@H]1NC(=O)[C@@H](NC(C)=O)CCCCNC(=O)c2ccc(cc2)C#Cc2[nH]c3ccccc3c2C[C@@H](C(=O)O)NC(=O)[C@H](Cc2ccccc2)NC(=O)[C@H](C)NC1=O [Ac-K(EBX)-Pra-A-F-W-OH],"ring closure, isolated yield","from C#CC[C@H](NC(=O)[C@H](CCCCNC(=O)c1ccc(C#CI2OC(C(F)(F)F)(C(F)(F)F)c3ccccc32)cc1)NC(C)=O)C(=O)N[C@@H](C)C(=O)N[C@@H](Cc1ccccc1)C(=O)N[C@@H](Cc1c[nH]c2ccccc12)C(=O)O, 28-membered ring",57%
CC(=O)N[C@H]1CCCCNC(=O)c2ccc(cc2)C#Cc2[nH]c3ccccc3c2C[C@@H](C(=O)O)NC(=O)[C@H](Cc2ccccc2)NC(=O)[C@H](C)NC(=O)[C@H](CO)NC1=O [Ac-K(EBX)-S-A-F-W-OH],"ring closure, isolated yield","from CC(=O)N[C@@H](CCCCNC(=O)c1ccc(C#CI2OC(C(F)(F)F)(C(F)(F)F)c3ccccc32)cc1)C(=O)N[C@@H](CO)C(=O)N[C@@H](C)C(=O)N[C@@H](Cc1ccccc1)C(=O)N[C@@H](Cc1c[nH]c2ccccc12)C(=O)O, 28-membered ring",67%
C[C@@H]1NC(=O)[C@H](CC(=O)O)NC(=O)c2ccc(cc2)C#Cc2c(c3ccccc3n2C)C[C@@H](C(N)=O)NC(=O)[C@H](CCC(=O)O)NC(=O)CNC(=O)[C@H]([C@@H](C)O)NC(=O)[C@H](CCC(=O)O)NC1=O [EBX-D-A-E-T-G-E-W(1-Me)-NH2],"ring closure, isolated yield","from C[C@H](NC(=O)[C@H](CC(=O)O)NC(=O)c1ccc(C#CI2OC(C(F)(F)F)(C(F)(F)F)c3ccccc32)cc1)C(=O)N[C@@H](CCC(=O)O)C(=O)N[C@H](C(=O)NCC(=O)N[C@@H](CCC(=O)O)C(=O)N[C@@H](Cc1cn(C)c2ccccc12)C(N)=O)[C@@H](C)O, 30-membered ring",86%
C[C@@H]1NC(=O)[C@H](CC(=O)O)NC(=O)c2ccc(cc2)C#Cc2[nH]c3ccccc3c2C[C@@H](C(N)=O)NC(=O)[C@H](CCC(=O)O)NC(=O)CNC(=O)[C@H]([C@@H](C)O)NC(=O)[C@H](CCC(=O)O)NC1=O [EBX-D-A-E-T-G-E-W-NH2],"ring closure, isolated yield","from C[C@H](NC(=O)[C@H](CC(=O)O)NC(=O)c1ccc(C#CI2OC(C(F)(F)F)(C(F)(F)F)c3ccccc32)cc1)C(=O)N[C@@H](CCC(=O)O)C(=O)N[C@H](C(=O)NCC(=O)N[C@@H](CCC(=O)O)C(=O)N[C@@H](Cc1c[nH]c2ccccc12)C(N)=O)[C@@H](C)O, 30-membered ring",49%
CC(=O)N[C@@H](CCC(=O)O)C(=O)N[C@H](C(=O)N[C@@H](Cc1ccccc1)C(=O)N[C@H]1CCCCNC(=O)c2ccc(cc2)C#Cc2[nH]c3ccccc3c2C[C@@H](C(=O)N[C@@H](C)C(=O)N[C@@H](CC(C)C)C(=O)N[C@@H](CC(C)C)C(=O)N[C@@H](Cc2c[nH]c3ccccc23)C(N)=O)NC(=O)[C@H](CC(C)C)NC(=O)[C@H](CC(=O)O)NC1=O)[C@@H](C)O [Ac-E-T-F-K(EBX)-D-L-W-A-L-L-W-NH2],"ring closure, isolated yield","from CC(=O)N[C@@H](CCC(=O)O)C(=O)N[C@H](C(=O)N[C@@H](Cc1ccccc1)C(=O)N[C@@H](CCCCNC(=O)c1ccc(C#CI2OC(C(F)(F)F)(C(F)(F)F)c3ccccc32)cc1)C(=O)N[C@@H](CC(=O)O)C(=O)N[C@@H](CC(C)C)C(=O)N[C@@H](Cc1c[nH]c2ccccc12)C(=O)N[C@@H](C)C(=O)N[C@@H](CC(C)C)C(=O)N[C@@H](CC(C)C)C(=O)N[C@@H](Cc1c[nH]c2ccccc12)C(N)=O)[C@@H](C)O, 25-membered ring",37%
CC[C@H](C)[C@@H]1NC(=O)[C@@H]2CCCN2C(=O)[C@H]([C@@H](C)CC)NC(=O)[C@@H]2CCCN2C(=O)[C@H](Cc2ccccc2)NC(=O)[C@H](C)NC(=O)c2ccc(cc2)C#Cc2[nH]c3ccccc3c2C[C@@H](C(N)=O)NC1=O [EBX-A-F-P-I-P-I-W-NH2],"ring closure, isolated yield","from CC[C@H](C)[C@H](NC(=O)[C@@H]1CCCN1C(=O)[C@@H](NC(=O)[C@@H]1CCCN1C(=O)[C@H](Cc1ccccc1)NC(=O)[C@H](C)NC(=O)c1ccc(C#CI2OC(C(F)(F)F)(C(F)(F)F)c3ccccc32)cc1)[C@@H](C)CC)C(=O)N[C@@H](Cc1c[nH]c2ccccc12)C(N)=O, 30-membered ring",53%
CC(=O)N[C@H]1CCCCNC(=O)c2ccc(cc2)C#Cc2[nH]c3ccccc3c2C[C@@H](C(=O)O)NC(=O)[C@H](CC(C)C)NC1=O [Ac-K(EBX)-L-W-OH],"ring closure, isolated yield","from CC(=O)N[C@@H](CCCCNC(=O)c1ccc(C#CI2OC(C(F)(F)F)(C(F)(F)F)c3ccccc32)cc1)C(=O)N[C@@H](CC(C)C)C(=O)N[C@@H](Cc1c[nH]c2ccccc12)C(=O)O, 22-membered ring",40%
CC(=O)N[C@H]1CCCCNC(=O)c2ccc(cc2)C#Cc2[nH]c3ccccc3c2C[C@@H](C(=O)O)NC(=O)[C@H](Cc2ccccc2)NC(=O)[C@H](C)NC(=O)[C@H](Cc2ccc(O)cc2)NC1=O [Ac-K(EBX)-Y-A-F-W-OH],"ring closure, isolated yield","from CC(=O)N[C@@H](CCCCNC(=O)c1ccc(C#CI2OC(C(F)(F)F)(C(F)(F)F)c3ccccc32)cc1)C(=O)N[C@@H](Cc1ccc(O)cc1)C(=O)N[C@@H](C)C(=O)N[C@@H](Cc1ccccc1)C(=O)N[C@@H](Cc1c[nH]c2ccccc12)C(=O)O, 28-membered ring",53%
CC(=O)N[C@H]1CCCCNC(=O)c2ccc(cc2)C#Cc2[nH]c3ccccc3c2C[C@@H](C(=O)O)NC(=O)[C@H](Cc2ccccc2)NC(=O)[C@H](C)NC(=O)[C@H](Cc2c[nH]cn2)NC1=O [Ac-K(EBX)-H-A-F-W-OH],"ring closure, isolated yield","from CC(=O)N[C@@H](CCCCNC(=O)c1ccc(C#CI2OC(C(F)(F)F)(C(F)(F)F)c3ccccc32)cc1)C(=O)N[C@@H](Cc1c[nH]cn1)C(=O)N[C@@H](C)C(=O)N[C@@H](Cc1ccccc1)C(=O)N[C@@H](Cc1c[nH]c2ccccc12)C(=O)O, 28-membered ring",30%
CC(=O)N[C@H]1CCCCNC(=O)c2ccc(cc2)C#Cc2[nH]c3ccccc3c2C[C@@H](C(=O)O)NC(=O)[C@H](Cc2ccccc2)NC(=O)[C@H](C)NC(=O)[C@H](CSSC(C)(C)C)NC1=O [Ac-K(EBX)-C(StBu)-A-F-W-OH],"ring closure, isolated yield","from CC(=O)N[C@@H](CCCCNC(=O)c1ccc(C#CI2OC(C(F)(F)F)(C(F)(F)F)c3ccccc32)cc1)C(=O)N[C@@H](CSSC(C)(C)C)C(=O)N[C@@H](C)C(=O)N[C@@H](Cc1ccccc1)C(=O)N[C@@H](Cc1c[nH]c2ccccc12)C(=O)O, 28-membered ring",25%
